{"source": "patent US8735167B2", "about": "“Photoinduced signal amplification through externally sensitized photofragmentation in masked photosensitizers and photoamplified fluorescence turn-off system” (Colorado Seminary, which owns and operates The University …, priority 2007, dated 2014)", "key": {"[1]": {"experiment": "19F PFG NMR diffusion in ionic liquid", "type": "physicochemical", "settings": "in N-methyl-N,N,N-trioctylammonium bis-triflylamide", "text": "Another use of ionic liquids for photoamplified bioanalytical methods is for electrochemical detection. […] Unmasking of the sensitizer dramatically changes the redox properties of the system which can be utilized in electrochemical detection of photoamplification. Again, as mentioned above, ionic liquids can be gelated and used in a form of pixilated bioanalytical array. […] The ^19F PFG NMR measurements of diffusion of 4-(trifluoromethyl)benzophenone in N-methyl-N,N,N-trioctylammonium bis-triflylamide produced the translational diffusion coefficient of 9×10^−7 cm^2 s^−1, which is still adequate for bimolecular collisional quenching of triplet benzophenone, necessary for the photoamplification. N-Methyl-N,N,N-trioctylammonium bis-triflylamide is the most viscous ionic liquid which we tested in our experiments. Other, much less viscous ionic liquids, for example N,N-dimethyl-N,N-dihexylammonium bis-triflylamide, performed even better."}, "[2]": {"experiment": "Pulse Field Gradient 19F NMR diffusion in N-n-octadecylurea organogels made in t-butyl benzene", "type": "physicochemical", "text": "The PFG NMR experiments allow for measuring diffusion coefficients of molecules of interest in complex mixtures, including gels. The successful photoamplification relies on adequate diffusion coefficients. The diffusion coefficients obtained for 4-trifluoromethylbenzophenone in gelated tert-butylbenzene and other solvents were within 10-15% of that in free (not gelated) solvents, which means that the gelation has no detrimental effect on photochemistry."}, "[3]": {"settings": "in non-polar solvents; cited from earlier work"}, "[4]": {"experiment": "Stern-Volmer fluorescence quenching of fluorene", "type": "physicochemical", "design": "unit not given here", "settings": "fluorene 10^−5 M, in CH2Cl2"}, "[5]": {"experiment": "Stern-Volmer fluorescence quenching of p-terphenyl", "type": "physicochemical", "design": "unit not given here", "settings": "p-terphenyl 10^−5 M", "text": "p-Oligophenylenes are known as durable fluorophores, and commonly used as a dye in dye lasers due to their resistance to photobleaching, a desirable characteristic for this application."}, "[6]": {"settings": "near diffusion controlled; previously shown; cited from earlier work"}}, "data": [{"smiles": "O=C(c1ccccc1)c1ccc(C(F)(F)F)cc1", "note": "[4-trifluoromethyl-benzophenone, 4-trifluoromethylbenzophenone]", "values": [{"measurement": "translational diffusion coefficient", "setting": "[1]", "result": "9×10^−7 cm^2 s^−1"}, {"measurement": "Diffusion Coefficient", "setting": "[2]; 0 % N-n-Octadecylurea, t-butyl benzene", "result": "6.50 × 10^−6 cm^2 s^−1"}, {"measurement": "Diffusion Coefficient", "setting": "[2]; 2 % N-n-Octadecylurea, t-butyl benzene organogel", "result": "5.32 × 10^−6 cm^2 s^−1"}, {"measurement": "Diffusion Coefficient", "setting": "[2]; 4 % N-n-Octadecylurea, t-butyl benzene organogel", "result": "5.60 × 10^−6 cm^2 s^−1"}, {"measurement": "Diffusion Coefficient", "setting": "[2]; 6 % N-n-Octadecylurea, t-butyl benzene organogel", "result": "5.34 × 10^−6 cm^2 s^−1"}, {"measurement": "Difference of diffusion coefficient in gelated solvent from that in free (not gelated) solvent", "setting": "[2]; gelated tert-butylbenzene and other solvents", "result": "10-15%"}]}, {"smiles": "c1ccc2c(c1)Cc1ccccc1-2", "note": "[Fluorene]", "values": [{"measurement": "fluorescence lifetime", "setting": "[3]", "result": 10, "unit": "ns"}]}, {"smiles": "CC1(C(O)(c2ccccc2)c2ccccc2)SCCCS1", "note": "[MDT BP adduct, 2-methyl-1,3-dithiane benzophenone adduct]", "values": [{"measurement": "Ksv, fluorescence quenching of fluorene", "setting": "[4]", "result": 2300}, {"measurement": "Ksv, fluorescence quenching of p-terphenyl", "setting": "[5]; in CH2Cl2", "result": 80}, {"measurement": "Ksv, fluorescence quenching of p-terphenyl", "setting": "[5]; in t-BuPh", "result": 40}, {"measurement": "rate of quenching of benzophenone triplet via electron transfer reduction", "setting": "[6]", "result": "10^9 M^−1 s^−1"}]}, {"smiles": "OC(c1ccccc1)c1ccccc1", "note": "[benzhydrol]", "values": [{"measurement": "Ksv, fluorescence quenching of p-terphenyl", "setting": "[5]; in CH2Cl2", "result": "smaller than for MDT BP adduct"}]}, {"smiles": "CC1SCCCS1", "note": "[dithiane, 2-methyl-1,3-dithiane]", "values": [{"measurement": "Ksv, fluorescence quenching of p-terphenyl", "setting": "[5]; in CH2Cl2", "result": "smaller than for MDT BP adduct"}]}]}
